Data reported in the NIST ThermoML archive (doi:10.1021/acs.jced.7b00939).
“And” between values parts separate entries of the source, which are not always exact repeats. Identical values can stand only once. ± gives the expanded uncertainty stated by the source.

Details: Liquid, Vibrating tube method

CCCCC(CC)COC(=O)c1ccc(C(=O)OCC(CC)CCCC)c(C(=O)OCC(CC)CCCC)c1 (stereo unspecified) [tris(2-ethylhexyl) trimellitate]
Details	mass density
328.15 K, 5110 kPa	965.697 ± 1.9 kg/m3
328.15 K, 10110 kPa	968.884 ± 2 kg/m3
328.15 K, 20120 kPa	974.939 ± 2 kg/m3
328.15 K, 30110 kPa	980.701 ± 2 kg/m3
333.15 K, 100 kPa	959.014 ± 1.9 kg/m3 [middle of 4 runs]
353.15 K, 100 kPa	944.616 ± 1.9 kg/m3 [middle of 4 runs]
363.15 K, 100 kPa	937.285 ± 1.9 kg/m3 and 937.369 ± 1.9 kg/m3
363.15 K, 5110 kPa	941.043 ± 1.9 kg/m3
363.15 K, 10110 kPa	944.715 ± 1.9 kg/m3
363.15 K, 20120 kPa	951.677 ± 1.9 kg/m3
363.15 K, 30130 kPa	958.176 ± 1.9 kg/m3
363.15 K, 40130 kPa	964.291 ± 1.9 kg/m3
363.15 K, 50140 kPa	969.983 ± 2 kg/m3
373.15 K, 100 kPa	930.229 ± 1.9 kg/m3 and 930.252 ± 1.9 kg/m3
383.15 K, 100 kPa	923.009 ± 1.9 kg/m3 and 923.041 ± 1.9 kg/m3 and 923.028 ± 1.9 kg/m3
388.15 K, 100 kPa	919.579 ± 1.9 kg/m3
388.15 K, 2640 kPa	921.672 ± 1.9 kg/m3
388.15 K, 5170 kPa	923.804 ± 1.9 kg/m3
388.15 K, 7730 kPa	925.892 ± 1.9 kg/m3
388.15 K, 10170 kPa	927.866 ± 1.9 kg/m3
388.15 K, 15260 kPa	931.875 ± 1.9 kg/m3
388.15 K, 20280 kPa	935.659 ± 1.9 kg/m3
388.15 K, 30390 kPa	942.915 ± 1.9 kg/m3
388.15 K, 40500 kPa	949.605 ± 1.9 kg/m3
388.15 K, 50560 kPa	955.87 ± 1.9 kg/m3
388.15 K, 68700 kPa	966.125 ± 2 kg/m3
393.15 K, 100 kPa	915.76 ± 1.9 kg/m3 and 915.768 ± 1.9 kg/m3
403.15 K, 100 kPa	908.475 ± 1.8 kg/m3 and 908.487 ± 1.8 kg/m3 and 908.679 ± 1.8 kg/m3
403.15 K, 2640 kPa	910.921 ± 1.8 kg/m3
403.15 K, 5110 kPa	912.879 ± 1.8 kg/m3
403.15 K, 5170 kPa	913.199 ± 1.8 kg/m3
403.15 K, 7690 kPa	915.392 ± 1.9 kg/m3
403.15 K, 10110 kPa	917.229 ± 1.9 kg/m3
403.15 K, 10220 kPa	917.585 ± 1.9 kg/m3
403.15 K, 15270 kPa	921.805 ± 1.9 kg/m3
403.15 K, 20110 kPa	925.405 ± 1.9 kg/m3
403.15 K, 20320 kPa	925.852 ± 1.9 kg/m3
403.15 K, 30120 kPa	932.929 ± 1.9 kg/m3
403.15 K, 30380 kPa	933.471 ± 1.9 kg/m3
403.15 K, 40120 kPa	939.962 ± 1.9 kg/m3
403.15 K, 40430 kPa	940.482 ± 1.9 kg/m3
403.15 K, 50130 kPa	946.45 ± 1.9 kg/m3
403.15 K, 50540 kPa	947.085 ± 1.9 kg/m3
403.15 K, 68140 kPa	957.148 ± 1.9 kg/m3
403.15 K, 68470 kPa	957.846 ± 1.9 kg/m3
413.15 K, 100 kPa	901.142 ± 1.8 kg/m3 and 901.152 ± 1.8 kg/m3
423.15 K, 100 kPa	893.777 ± 1.8 kg/m3 and 893.78 ± 1.8 kg/m3
423.15 K, 2590 kPa	896.162 ± 1.8 kg/m3
423.15 K, 5100 kPa	898.654 ± 1.8 kg/m3
423.15 K, 7590 kPa	901.053 ± 1.8 kg/m3
423.15 K, 10100 kPa	903.407 ± 1.8 kg/m3
423.15 K, 20110 kPa	912.286 ± 1.9 kg/m3
423.15 K, 30120 kPa	920.442 ± 1.9 kg/m3
423.15 K, 40120 kPa	927.911 ± 1.9 kg/m3
423.15 K, 50120 kPa	934.915 ± 1.9 kg/m3
423.15 K, 68140 kPa	946.287 ± 1.9 kg/m3
